Like-named read-outs stand apart in the source and are kept apart here.
Target: T1, rM1 (Rattus norvegicus, UniProt P08482)
T1 construct: host or cells: CHO-K1
T1 sequence (P08482 1-460): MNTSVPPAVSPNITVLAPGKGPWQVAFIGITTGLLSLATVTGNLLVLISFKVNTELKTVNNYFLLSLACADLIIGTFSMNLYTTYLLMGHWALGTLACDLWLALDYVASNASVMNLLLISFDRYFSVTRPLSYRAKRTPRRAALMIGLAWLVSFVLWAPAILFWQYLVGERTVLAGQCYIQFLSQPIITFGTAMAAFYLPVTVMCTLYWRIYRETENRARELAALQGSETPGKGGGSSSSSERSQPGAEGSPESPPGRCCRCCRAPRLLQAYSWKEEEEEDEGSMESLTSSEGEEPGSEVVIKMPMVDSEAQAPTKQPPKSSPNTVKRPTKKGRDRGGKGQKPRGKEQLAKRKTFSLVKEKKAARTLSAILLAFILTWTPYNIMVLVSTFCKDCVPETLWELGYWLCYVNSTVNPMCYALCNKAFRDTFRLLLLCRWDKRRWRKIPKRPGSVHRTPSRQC
Experiment: Calcium mobilization assay, CHO-K1 cells stably expressing rM1
Assay type: cell-based
Details: for EC50: read-out: Potency (EC50); for Emax: RM1, read-out: Efficacy (% Max ACh)
Text: Cell culture and transfections. Chinese hamster ovary (CHO-K1) cells stably expressing rat (r)M1 were purchased from the American Type Culture Collection and cultured according to their indicated protocol. CHO cells stably expressing human (h)M2, hM3, and hM5 were used and described previously (Levey et al., 1991); rM4 cDNA, provided by T. I. Bonner (National Institutes of Health, Bethesda, Md.), was used to stably transfect CHO-K1 cells purchased from the American Type Culture Collection using Lipofectamine2000. To make stable hM2 and rM4 cell lines for use in calcium mobilization assays, these cells also were stably transfected with a chimeric G-protein (Gqi5) using Lipofectamine 2000. M1, hM3, and hM5 cells were grown in Ham's F-12 medium containing 10% heat-inactivated fetal bovine serum (FBS), 20 mM HEPES, and 50 μg/ml G418 sulfate. hM2-Gqi5 cells were grown in the same medium also containing 500 μg/ml Hygromycin B. Stable rM4-Gqi5 cells were grown in DMEM containing 10% heat-inactivated FBS, 20 mM HEPES, 400 μg/ml G418 sulfate, and 500 μg/ml Hygromycin B. The rat M1 Y381A orthosteric mutant receptor cDNA was generated using the Quik-Change site-directed mutagenesis kit (Stratagene) and verified by sequencing. CHO-K1 cells were stably transfected with this cDNA using Lipofectamine2000 and screened for expression based on calcium mobilization in response to the allosteric M1 agonist N-desmethylclozapine.
Calcium mobilization assays. For measurement of agonist-evoked increases in intracellular calcium, CHO-K1 cells stably expressing muscarinic receptors were plated in 100 μl of growth medium at 5×10^4 (rM1, hM3, and hM5) or 6×10^4 cells per well (rM1 Y381A, hM2, and rM4) in Costar 96-well black-walled, tissue culture (TC)-treated, clear-bottom plates (Fisher). Cells were incubated overnight at 37° C. and 5% CO2. The next day, medium was removed from the cells, and they were incubated with 50 μl of 2 μM Fluo-4 AM diluted in assay buffer [HBSS (Invitrogen) supplemented with 20 mM HEPES and 2.5 mM probenecid, pH 7.4] for 1 h at 37° C. Dye was removed and replaced with 45 μl of assay buffer. Agonists were diluted into assay buffer at a 2× concentration and applied to cells using the automated system at 19 s into the 130 s protocol. Calcium flux was measured over time as an increase in fluorescence (fold over basal) using the Flexstation plate reader (Molecular Devices).

[1] = Table 1, R-enantiomers, agonist-evoked calcium flux

`CCOC(=O)N1CCC(N2CCC[C@H](NC(=O)c3cccc(OC)c3)C2)CC1` [(S)-ethyl 3-(3-methoxybenzamido)-1,4′-bipiperidine-1′-carboxylate] was tested. Which EC50 (Table 2, S-enantiomers) did it give?
Its EC50 is greater than 10000 nM.

How did the EC50 (Table 2, S-enantiomers) turn out when `CCOC(=O)N1CCC(N2CCC[C@H](NC(=O)c3cccs3)C2)CC1` [(S)-ethyl 3-(thiophene-2-carboxamido)-1,4′-bipiperidine-1′-carboxylate] was run?
Its EC50 is greater than 10000 nM.

Which EC50 (Table 2, S-enantiomers) does the source give for `CCOC(=O)N1CCC(N2CCC[C@H](NC(=O)C3CCCC3)C2)CC1` [(S)-ethyl 3-(cyclopentanecarboxamido)-1,4′-bipiperidine-1′-carboxylate] here?
The EC50 was greater than 10000 nM.

Which EC50 (Table 2, S-enantiomers) does the source give for `CCOC(=O)N1CCC(N2CCC[C@H](NC(=O)c3ccccc3)C2)CC1` [(S)-ethyl 3-benzamido-1,4′-bipiperidine-1′-carboxylate] here?
Its EC50 is greater than 10000 nM.

`CCOC(=O)N1CCC(N2CCC[C@H](NC(=O)c3ccc(F)cc3C)C2)CC1` [(S)-ethyl 3-(4-fluoro-2-methylbenzamido)-1,4′-bipiperidine-1′-carboxylate] was tested. Which EC50 (Table 2, S-enantiomers) did it give?
The EC50 was greater than 10000 nM.

`CCOC(=O)N1CCC(N2CCC[C@@H](NC(=O)C3CCCCC3)C2)CC1` [(R)-ethyl 3-(cyclohexanecarboxamido)-1,4′-bipiperidine-1′-carboxylate] was tested. Which Emax (Table 1, R-enantiomers) did it give?
The Emax was 44%.

What about the EC50 [1] of the same compound?
The EC50 was 685 nM.

How did the Emax (Table 1, R-enantiomers) turn out when `CCOC(=O)N1CCC(N2CCC[C@@H](NC(=O)c3ccc(C)cc3)C2)CC1` [(R)-ethyl 3-(4-methylbenzamido)-1,4′-bipiperidine-1′-carboxylate] was run?
The Emax was 14%.

And the EC50 [1]?
The EC50 was 819 nM.

`CCOC(=O)N1CCC(N2CCC[C@H](NC(=O)c3ccc(F)c(F)c3)C2)CC1` [(S)-ethyl 3-(3,4-difluorobenzarnido)-1,4′-bipiperidine-1′-carboxylate] was tested. Which EC50 (Table 2, S-enantiomers) did it give?
The EC50 was greater than 10000 nM.

With `CCOC(=O)N1CCC(N2CCC[C@@H](NC(=O)C3CCCC3)C2)CC1` [(R)-ethyl 3-(cyclopentanecarboxamido)-1,4′-bipiperidine-1′-carboxylate] as the compound, how does the Emax (Table 1, R-enantiomers) read?
Its Emax is 35%.

What about the EC50 [1] of the same compound?
Its EC50 is 5300 nM.

What does the source list for `CCOC(=O)N1CCC(N2CCC[C@@H](NC(=O)c3ccc(F)cc3C)C2)CC1` [(R)-ethyl 3-(4-fluoro-2-methylbenzamido)-1,4′-bipiperidine-1′-carboxylate]?
Emax (Table 1, R-enantiomers): 77%; EC50 [1]: 59 nM

`CCOC(=O)N1CCC(N2CCC[C@@H](NC(=O)c3ccc(OC)cc3)C2)CC1` [(R)-ethyl 3-(4-methoxybenzamido)-1,4′-bipiperidine-1′-carboxylate] was tested. Which Emax (Table 1, R-enantiomers) did it give?
Its Emax is 63%.

What about the EC50 [1] of the same compound?
The EC50 was 963 nM.

For `CCOC(=O)N1CCC(N2CCC[C@@H](NC(=O)c3cccc(OC)c3)C2)CC1` [(R)-ethyl 3-(3-methoxybenzamido)-1,4′-bipiperidine-1′-carboxylate], which Emax (Table 1, R-enantiomers) is on record?
Its Emax is 91%.

What about the EC50 [1] of the same compound?
The EC50 was 245 nM.

Which results are given for `CCOC(=O)N1CCC(N2CCC[C@@H](NC(=O)c3cccs3)C2)CC1` [(R)-ethyl 3-(thiophene-2-carboxamido)-1,4′-bipiperidine-1′-carboxylate]?
Emax (Table 1, R-enantiomers): 61%; EC50 [1]: 1300 nM

Which EC50 (Table 2, S-enantiomers) does the source give for `CCOC(=O)N1CCC(N2CCC[C@H](NC(=O)c3ccccc3C)C2)CC1` [(S)-ethyl 3-(2-methylbenzamido)-1,4′-bipiperidine-1′-carboxylate] here?
Its EC50 is greater than 10000 nM.

`CCOC(=O)N1CCC(N2CCC[C@H](NC(=O)c3cccc(F)c3)C2)CC1` [(S)-ethyl 3-(3-fluorobenzamido)-1,4′-bipiperidine-1′-carboxylate] was tested. Which EC50 (Table 2, S-enantiomers) did it give?
Its EC50 is greater than 10000 nM.

For `CCOC(=O)N1CCC(N2CCC[C@H](NC(=O)c3ccc(OC)cc3)C2)CC1` [(S)-ethyl 3-(4-methoxybenzamido)-1,4′-bipiperidine-1′-carboxylate], which EC50 (Table 2, S-enantiomers) is on record?
The EC50 was greater than 10000 nM.

With `CCOC(=O)N1CCC(N2CCC[C@@H](NC(=O)c3ccccc3Cl)C2)CC1` [(R)-ethyl 3-(2-chlorobenzamido)-1,4′-bipiperidine-1′-carboxylate] as the compound, how does the Emax (Table 1, R-enantiomers) read?
The Emax was 57%.

And the EC50 [1]?
Its EC50 is 2600 nM.

Which EC50 (Table 2, S-enantiomers) does the source give for `CCOC(=O)N1CCC(N2CCC[C@H](NC(=O)c3ccc(C)cc3)C2)CC1` [(S)-ethyl 3-(4-methylbenzamido)-1,4′-bipiperidine-1′-carboxylate] here?
Its EC50 is greater than 10000 nM.

With `CCOC(=O)N1CCC(N2CCC[C@H](NC(=O)C3CCCCC3)C2)CC1` [(S)-ethyl 3-(cyclohexanecarboxamido)-1,4′-bipiperidine-1′-carboxylate] as the compound, how does the EC50 (Table 2, S-enantiomers) read?
Its EC50 is greater than 10000 nM.

`CCOC(=O)N1CCC(N2CCC[C@@H](NC(=O)c3ccc(F)c(F)c3)C2)CC1` [(R)-ethyl 3-(3,4-difluorobenzamido)-1,4′-bipiperidine-1′-carboxylate] was tested. Which Emax (Table 1, R-enantiomers) did it give?
The Emax was 84%.

What about the EC50 [1] of the same compound?
Its EC50 is 309 nM.

For `CCOC(=O)N1CCC(N2CCC[C@@H](NC(=O)c3cccc(F)c3)C2)CC1` [(R)-ethyl 3-(3-fluorobenzamido)-1,4′-bipiperidine-1′-carboxylate], which Emax (Table 1, R-enantiomers) is on record?
Its Emax is 92%.

What about the EC50 [1] of the same compound?
Its EC50 is 144 nM.

Which EC50 (Table 2, S-enantiomers) does the source give for `CCOC(=O)N1CCC(N2CCC[C@H](NC(=O)c3ccccc3Cl)C2)CC1` [(S)-ethyl 3-(2-chlorobenzamido)-1,4′-bipiperidine-1′-carboxylate] here?
The EC50 was greater than 10000 nM.

Source: US20120088791A1, “AMIDOBIPIPERIDINECARBOXYLATE M1 ALLOSTERIC AGONISTS, ANALOGS AND DERIVATIVES THEREOF, AND METHODS OF MAKING AND USING SAME” (VANDERBILT UNIVERSITY, priority 2009, published 2012)
